Experimental data from PMC13198257, “An aerosolized dual-action autotaxin inhibitor-PPARγ agonist for the treatment of pulmonary fibrosis” (Cell Reports Medicine, 2026).

Test system: lung gene expression
Assay: RNA sequencing of lung tissue (BLM/EL244 vs BLM)
Assay type: in vivo, mouse
Details: BLM/EL244 vs BLM
Experimental: RNA quality was assessed using an Agilent TapeStation 4150 with the High Sensitivity […] ScreenTape (Agilent), according to the manufacturer’s protocols. For library preparation, the QuantSeq 3’mRNA-Seq Library Prep Kit (Lexogen) was used according to manufacturer’s instructions. Briefly, 500 ng of RNA from each sample was used for first-strand synthesis, followed by RNA template removal, and second-strand synthesis initiated by random primers. In-line barcodes were introduced at this step, and this was followed by magnetic bead-based purification. The resulting libraries were amplified for 15 cycles and re-purified, with quantity and quality assessed on a Qubit 4 Fluorometer with the Invitrogen Qubit dsDNA HS Assay and an Agilent Tapestation 4150 with the High Sensitivity D1000 assay kit, respectively. The quantified libraries were pooled equimolarly; 50ng of total library mix was used for Adapter Conversion PCR Amplification using the Universal Library Conversion Kit (App-A), Version: V1.0 (MGI Tech Co., Ltd.), according to the manufacturer’s instructions.
The quantity and quality of the purified adapter conversion PCR (AC-PCR) product were evaluated on a Qubit 4 Fluorometer with the Invitrogen Qubit dsDNA HS Assay and on an Agilent Tapestation 4150 with the High Sensitivity D1000 assay kit, respectively. This was followed by DNA denaturation, Single-Strand Circularisation, Enzymatic Digestion, Enzymatic Digestion Product Cleanup and Quality Control steps on 1 pmol of AC-PCR product, according to the Universal Library Conversion Kit (App-A) User Manual (Version: A3).
Finally, 60 fmol of ssCirDNA were used for DNB preparation and sequencing on a DNBSEQ-G400 platform at the BSRC Alexander Fleming Genomics Facility, using a G400 App-A FCS SE100 High-throughput Sequencing Set (MGI Tech Co., Ltd.), according to the manufacturer’s instructions.
Alignment of the FASTQ files was performed against the mouse genome build mm10 using a custom Bash script.[143] Read counting on the 3′ UTRs and differential expression analysis were conducted using the metaseqR2 bioconductor package.[144] Genes corresponding to the following biotypes were excluded: polymorphic_pseudogene, processed_transcript, pseudogene, IG_V_pseudogene, misc_RNA, IG_C_gene, IG_J_gene, IG_D_gene, IG_LV_gene, TR_V_gene, TR_V_pseudogene, TEC, and processed_pseudogene. Gene counts were normalized with DESEQ[145] through metaseqR2. Genes with more than 10 counts in at least 50% of the samples were kept for further processing. For differential expression analysis, the PANDORA algorithm[146] was used to estimate a meta p-value integrating the results from the DESEQ, DESEQ2,[147] edgeR,[148] limma,[149] NBPSeq,[150] and NOISeq[151] algorithms. All additional parameters were set to default values.
Pathway enrichment analysis was performed for the Gene Ontology Biological process (BP) and Molecular Function (MF) terms through GeneCodis 4.[152] The volcano plots, scatterplots, Venn diagrams, and dot plots were generated using the ggplot2 Bioconductor package.

[1] = lung tissue of BLM-treated mice

O=C1NC(=O)C(Cc2ccc(OCCC3CCN(C(=O)OCc4cc(Cl)cc(Cl)c4)CC3)cc2)S1 (stereo not drawn) [EL244, 3,5-dichlorobenzyl 4-(2-(4-((2,4-dioxothiazolidin-5-yl)methyl)phenoxy)ethyl)piperidine-1-carboxylate]
Synm log2 nFC [1]: 0.84 | Synm nFC [1]: 1.79 | Tbc1d8 log2 nFC [1]: 1.01 | Tbc1d8 nFC [1]: 2.01 | Tbkbp1 log2 nFC [1]: 0.71 | Tbkbp1 nFC [1]: 1.64 | Tgfbr3 log2 nFC [1]: 0.83 | Tgfbr3 nFC [1]: 1.78 | Tmcc3 log2 nFC [1]: 0.74 | Tmcc3 nFC [1]: 1.67 | Tmem100 log2 nFC [1]: 0.82 | Tmem100 nFC [1]: 1.77 | Tns2 log2 nFC [1]: 0.77 | Tns2 nFC [1]: 1.70 | Tppp3 log2 nFC [1]: 0.77 | Tppp3 nFC [1]: 1.70 | Unc45b log2 nFC [1]: 0.77 | Unc45b nFC [1]: 1.70 | Vpreb3 log2 nFC [1]: 0.71 | Vpreb3 nFC [1]: 1.63 | Vwa3b log2 nFC [1]: 0.98 | Vwa3b nFC [1]: 1.97 | Zfp36 log2 nFC [1]: 0.94 | Zfp36 nFC [1]: 1.92 | Acss1 log2 nFC (lung tissue): 0.65 | Acss1 nFC (lung tissue): 1.56 | Actn1 log2 nFC (lung tissue): -0.60 | Actn1 nFC (lung tissue): 0.66 | Adam12 log2 nFC (lung tissue): -1.57 | Adam12 nFC (lung tissue): 0.34 | Adamts4 log2 nFC (lung tissue): -2.15 | Adamts4 nFC (lung tissue): 0.23 | Adamts12 log2 nFC (lung tissue): -1.47 | Adamts12 nFC (lung tissue): 0.36 | Adgre1 log2 nFC (lung tissue): -0.79 | Adgre1 nFC (lung tissue): 0.58 | Ahnak log2 nFC (lung tissue): 0.61 | Ahnak nFC (lung tissue): 1.52 | Akap12 log2 nFC (lung tissue): 0.65 | Akap12 nFC (lung tissue): 1.57 | Ankrd37 log2 nFC (lung tissue): -1.50 | Ankrd37 nFC (lung tissue): 0.35 | Anln log2 nFC (lung tissue): -2.01 | Anln nFC (lung tissue): 0.25 | Apoe log2 nFC (lung tissue): -0.84 | Apoe nFC (lung tissue): 0.56 | Arg1 log2 nFC (lung tissue): -2.32 | Arg1 nFC (lung tissue): 0.20 | Arhgef39 log2 nFC (lung tissue): -1.70 | Arhgef39 nFC (lung tissue): 0.31 | Aurka log2 nFC (lung tissue): -2.19 | Aurka nFC (lung tissue): 0.22 | Aurkb log2 nFC (lung tissue): -1.85 | Aurkb nFC (lung tissue): 0.28 | Bex3 log2 nFC (lung tissue): -0.75 | Bex3 nFC (lung tissue): 0.59 | Bhlhe40 log2 nFC (lung tissue): -0.85 | Bhlhe40 nFC (lung tissue): 0.56 | Birc5 log2 nFC (lung tissue): -2.03 | Birc5 nFC (lung tissue): 0.25 | Bmpr2 log2 nFC (lung tissue): 0.60 | Bmpr2 nFC (lung tissue): 1.52 | Brca2 log2 nFC (lung tissue): -1.64 | Brca2 nFC (lung tissue): 0.32 | Brinp1 log2 nFC (lung tissue): -1.85 | Brinp1 nFC (lung tissue): 0.28 | C1qa log2 nFC (lung tissue): -1.44 | C1qa nFC (lung tissue): 0.37 | C1qb log2 nFC (lung tissue): -1.51 | C1qb nFC (lung tissue): 0.35 | C1qc log2 nFC (lung tissue): -1.56 | C1qc nFC (lung tissue): 0.34 | C3ar1 log2 nFC (lung tissue): -1.58 | C3ar1 nFC (lung tissue): 0.33 | Capg log2 nFC (lung tissue): -0.82 | Capg nFC (lung tissue): 0.57 | Casp3 log2 nFC (lung tissue): -0.85 | Casp3 nFC (lung tissue): 0.56 | Ccdc80 log2 nFC (lung tissue): -1.64 | Ccdc80 nFC (lung tissue): 0.32 | Ccl2 log2 nFC (lung tissue): -1.43 | Ccl2 nFC (lung tissue): 0.37 | Ccl7 log2 nFC (lung tissue): -1.75 | Ccl7 nFC (lung tissue): 0.30 | Ccl8 log2 nFC (lung tissue): -1.54 | Ccl8 nFC (lung tissue): 0.34 | Ccl12 log2 nFC (lung tissue): -2.27 | Ccl12 nFC (lung tissue): 0.21 | Ccn4 log2 nFC (lung tissue): -2.20 | Ccn4 nFC (lung tissue): 0.22 | Ccna2 log2 nFC (lung tissue): -2.26 | Ccna2 nFC (lung tissue): 0.21 | Ccnb1 log2 nFC (lung tissue): -2.41 | Ccnb1 nFC (lung tissue): 0.19 | Ccnb2 log2 nFC (lung tissue): -1.68 | Ccnb2 nFC (lung tissue): 0.31 | Ccne1 log2 nFC (lung tissue): -2.04 | Ccne1 nFC (lung tissue): 0.24 | Ccnf log2 nFC (lung tissue): -2.02 | Ccnf nFC (lung tissue): 0.25 | Ccr5 log2 nFC (lung tissue): -1.76 | Ccr5 nFC (lung tissue): 0.30 | Cd63 log2 nFC (lung tissue): -0.76 | Cd63 nFC (lung tissue): 0.59 | Cd276 log2 nFC (lung tissue): -1.70 | Cd276 nFC (lung tissue): 0.31 | Cdc20 log2 nFC (lung tissue): -1.58 | Cdc20 nFC (lung tissue): 0.34 | Cdca3 log2 nFC (lung tissue): -1.83 | Cdca3 nFC (lung tissue): 0.28 | Cdca8 log2 nFC (lung tissue): -2.32 | Cdca8 nFC (lung tissue): 0.20 | Cdk1 log2 nFC (lung tissue): -1.99 | Cdk1 nFC (lung tissue): 0.25
